Some test systems named below: SNB-19 CNS; MOLT-4 leukemia; HCT-116 colon; U251 CNS; HT29 colon; SK-MEL-28 melanoma; NCI-H522 lung; K-562 leukemia; A549 NSCLC; SK-MEL-5 melanoma.
Assay in all cases: growth of human tumour cells (NCI), 48 h

From PubChem BioAssay (NCI) come the findings set out here.

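Test compounds were applied to cells in 96-well plates for 48 hours at 5 doses. GI50: concentration for 50% inhibition of growth. TGI: concentration producing complete growth inhibition.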 Bounds are passed on as bounds.

`COc1c(Cl)cc(S(=O)O)cc1Cl`: the TGI in the assay on SNB-19 CNS, in the assay with MOLT-4 leukemia, in the assay with HCT-116 colon, in the assay with U251 CNS, in the assay on HT29 colon and in the assay with SK-MEL-28 melanoma was above 100 µM each time. Also, the TGI with NCI-H522 lung and with K-562 leukemia was above 100 µM each time.

Consider `Fc1ccc(-c2nnc3sc(COc4ccccc4Cl)nn23)cc1Cl`, for which the GI50 in the assay on SNB-19 CNS was 39.9 µM; with MOLT-4 leukemia, 24.5 µM; with HCT-116 colon, 29.1 µM; in the assay with U251 CNS it was 24.9 µM; in the assay with HT29 colon, 48.1 µM; in the assay with A549 NSCLC, 41.1 µM. For the same molecule, the GI50 with SK-MEL-5 melanoma was 23.4 µM; with NCI-H522 lung it was 18 µM; in the assay on K-562 leukemia, 24.6 µM. The TGI with SNB-19 CNS was above 100 µM; in the assay on MOLT-4 leukemia it was above 100 µM; in the assay on HCT-116 colon, above 100 µM; in the assay on U251 CNS it was 67.2 µM; with HT29 colon it was above 100 µM; with A549 NSCLC it was above 100 µM. The TGI in the assay with SK-MEL-5 melanoma turned out to be 69.1 µM; in the assay on NCI-H522 lung it was 36.3 µM; in the assay on K-562 leukemia it was 67.6 µM.

For `c1ccc2sc(SCN(C3CCCCC3)C3CCCCC3)nc2c1`, the TGI in the assay on SNB-19 CNS, with MOLT-4 leukemia, with U251 CNS, in the assay on HT29 colon, in the assay with A549 NSCLC and with SK-MEL-5 melanoma was above 100 µM each time. Further, the TGI with SK-MEL-28 melanoma, in the assay with NCI-H522 lung and with K-562 leukemia was above 100 µM throughout.

As to `CC(CO)(CO)Nc1ncnc2ccccc12`, the TGI in the assay on SNB-19 CNS, in the assay with MOLT-4 leukemia, in the assay on HCT-116 colon, with U251 CNS, in the assay with HT29 colon and in the assay with A549 NSCLC was above 100 µM each time. Moreover, the TGI in the assay on SK-MEL-5 melanoma, with SK-MEL-28 melanoma, in the assay with NCI-H522 lung and with K-562 leukemia was above 100 µM in each case.

Consider `Nc1nnc(N)n1NC(=O)C(=O)Nc1ccc([N+](=O)[O-])cc1`, for which the TGI with SNB-19 CNS, in the assay with MOLT-4 leukemia, in the assay with HCT-116 colon, in the assay with U251 CNS, with HT29 colon and with A549 NSCLC was above 100 µM throughout. For the same molecule, the TGI with SK-MEL-5 melanoma, with SK-MEL-28 melanoma, in the assay with NCI-H522 lung and with K-562 leukemia was above 100 µM in each case.

On to `NC(=O)Nc1cc(O)ccc1N=Nc1ccc(S(=O)(=O)Nc2ccccn2)cc1`, for which the TGI in the assay with SNB-19 CNS, in the assay with MOLT-4 leukemia, with HCT-116 colon, in the assay with U251 CNS, in the assay on HT29 colon and in the assay with A549 NSCLC was above 100 µM throughout. The TGI in the assay with SK-MEL-5 melanoma, in the assay with SK-MEL-28 melanoma, in the assay on NCI-H522 lung and in the assay with K-562 leukemia was above 100 µM each time.

For `COc1cc(O)c2c(c1)C(=O)c1cc(C)cc(O)c1C2=O`, the TGI in the assay with SNB-19 CNS, with MOLT-4 leukemia, with HCT-116 colon, in the assay with U251 CNS, in the assay with HT29 colon and in the assay on A549 NSCLC was above 100 µM in each case. Besides, the TGI in the assay with SK-MEL-5 melanoma, with SK-MEL-28 melanoma, with NCI-H522 lung and in the assay on K-562 leukemia was above 100 µM throughout.
